A word on the melting point: it is the temperature of the solid-liquid transition.

`CC(=O)Nc1cccc2c1C(=O)N(C(CC(=O)N(C)C)c1ccc(OC(F)F)c(OCC3CC3)c1)C2=O` (centres unmarked) [Example 5, 3-(4-Acetylamino-1,3-dioxo-1,3-dihydro-isoindol-2-yl)-3-(3-cyclopropylmethoxy-4-difluoromethoxy-phenyl)-N,N -dimethyl-propionamide] yielded a melting point of 80 to 82 °C.

`CC(=O)Nc1cccc2c1C(=O)N(C(CC(N)=O)c1ccc(OC(F)F)c(OCC3CC3)c1)C2=O` (centres unmarked) [Example 6, 3-(4-Acetylamino-1,3-dioxo-1,3-dihydro-isoindol-2-yl) -3-(3 cyclopropylmethoxy-4-difluoromethoxy-phenyl) -propionamide] had a melting point of 77 to 79 °C.

`O=C(CC(c1ccc(OC(F)F)c(OCC2CC2)c1)N1C(=O)c2ccccc2C1=O)NO` (centres unmarked) [Example 8, 3-(3-Cyclopropylmethoxy-4-difluoromethoxy-phenyl) -3-(1,3-dioxo-1,3-dihydro-isoindol-2-yl)-N-hydroxy-propionamide] showed a melting point of 129 to 131 °C.

With `CN(C)C(=O)CC(c1ccc(OC(F)F)c(OCC2CC2)c1)N1Cc2cccc(N)c2C1=O` (centres unmarked) [Example 14, 3-(7-Amino-1-oxo-1,3-dihydro-isoindol-2-yl)-3-(3-cyclopropylmethoxy-4-difluoromethoxy-phenyl)-N,N-dimethyl-propionamide], the melting point is 70 to 72 °C.

Compound `CCOc1cc(C(CC(=O)O)N2Cc3cccc(NC(C)=O)c3C2=O)ccc1OC(F)F` (centres unmarked) [Example 22, 3-(7-Acetylamino-1-oxo-1,3-dihydro-isoindol-2-yl)-3-(4-difluoromethoxy-3-ethoxy-phenyl)-propionic acid] came in with a melting point of 105 to 107 °C.

Regarding `CCOc1cc(C(CC(N)=O)N2Cc3cccc(NC(=O)C4CC4)c3C2=O)ccc1OC(F)F` (centres unmarked) [Example 24, Cyclopropanecarboxylic acid {2-[2-carbamoyl-1-(4-difluoromethoxy-3-ethoxy-phenyl)-ethyl]-3-oxo-2,3-dihydro-1H -isoindol-4-yl}-amide], the melting point was 179 to 181 °C.

In turn, `CCOc1cc(C(CC(=O)N(C)C)N2Cc3cccc(NC(=O)C4CC4)c3C2=O)ccc1OC(F)F` (centres unmarked) [Example 25, Cyclopropanecarboxylic acid {2-[1-(4-difluoromethoxy-3-ethoxy-phenyl)-2-dimethylcarbamoyl-ethyl]-3-oxo-2,3-dihydro-1H-isoindol-4-yl}-amide] displayed a melting point of 135 to 137 °C.

Take `CCOc1cc(C(CC(=O)NO)N2Cc3cccc(NC(=O)C4CC4)c3C2=O)ccc1OC(F)F` (centres unmarked) [Example 26, Cyclopropanecarboxylic acid {2-[1-(4-difluoromethoxy-3-ethoxy-phenyl)-2-hydroxycarbamoyl-ethyl]-3-oxo-2,3-dihydro-1H-isoindol-4-yl}-amide]: the melting point lay in the range of 116 to 118 °C.

Take `CCOc1cc(C(CC(N)=O)N2Cc3cccc(NC(C)=O)c3C2=O)ccc1OC(F)F` (centres unmarked) [Example 27, 3-(7-Acetylamino-1-oxo-1,3-dihydro-isoindol-2-yl)-3-(4-difluoromethoxy-3-ethoxy-phenyl)-propionamide]: the melting point lay within 129 to 131 °C.

`CCOc1cc(C(CC(=O)N(C)C)N2Cc3cccc(NC(C)=O)c3C2=O)ccc1OC(F)F` (centres unmarked) [Example 28, 3-(7-Acetylamino-1-oxo-1,3-dihydro-isoindol-2-yl)-3-(4-difluoromethoxy-3-ethoxy-phenyl)-N,N-dimethyl-propionamide] showed a melting point of 141 to 143 °C.

Compound `CCOc1cc(C(CC(=O)NO)N2Cc3cccc(NC(C)=O)c3C2=O)ccc1OC(F)F` (centres unmarked) [Example 29, 3-(7-Acetylamino-1-oxo-1,3-dihydro-isoindol-2-yl)-3-(4-difluoromethoxy-3-ethoxy-phenyl)-N-hydroxy-propionamide] registered a melting point of 121 to 123 °C.

Compound `CCOc1cc(C(CC(=O)O)N2C(=O)c3cccc(NC(C)=O)c3C2=O)ccc1OC(F)F` (centres unmarked) [Example 30, 3-(4-Acetylamino-1,3-dioxo-1,3-dihydro-isoindol-2-yl)-3-(4-difluoromethoxy-3-ethoxy-phenyl)-propionic acid] registered a melting point of 89 to 91 °C.

Take `CCOc1cc(C(CC(N)=O)N2C(=O)c3cccc(NC(C)=O)c3C2=O)ccc1OC(F)F` (centres unmarked) [Example 31, 3-(4-Acetylamino-1,3-dioxo-1,3-dihydro-isoindol-2-yl)-3-(4-difluoromethoxy-3-ethoxy-phenyl)-propionamide]: the melting point lay within 178 to 180 °C.

`CCOc1cc(C(CC(=O)N(C)C)N2C(=O)c3cccc(NC(C)=O)c3C2=O)ccc1OC(F)F` (centres unmarked) [Example 32, 3-(4-Acetylamino-1,3-dioxo-1,3-dihydro-isoindol-2-yl)-3-(4-difluoromethoxy-3-ethoxy-phenyl)-N,N-dimethyl-propionamide] returned a melting point of 163 to 165 °C.

`CCOc1cc(C(CC(=O)NO)N2C(=O)c3cccc(NC(C)=O)c3C2=O)ccc1OC(F)F` (centres unmarked) [Example 33, 3-(4-Acetylamino-1,3-dioxo-1,3-dihydro-isoindol-2-yl)-3-(4-difluoromethoxy-3-ethoxy-phenyl)-N-hydroxy-propionamide]: the melting point was in the range of 148 to 150 °C.

Take `CCOc1cc(C(CS(C)(=O)=O)N2Cc3cccc(NC(=O)C4CC4)c3C2=O)ccc1OC(F)F` (centres unmarked) [Example 35, Cyclopropanecarboxylic acid {2-[1-(4-difluoromethoxy-3-ethoxy-phenyl)-2-methanesulfonyl-ethyl]-3-oxo-2,3-dihydro-1H-isoindol-4-yl}-amide]: the melting point lay in the range of 115 to 117 °C.

The compound `CCOc1cc(C(CS(C)(=O)=O)N2C(=O)c3cccc(NC(C)=O)c3C2=O)ccc1OC(F)F` (centres unmarked) [Example 36] returned a melting point of 118 to 120 °C.

Regarding `CCOc1cc(C(CC(N)=O)N2Cc3c(Cl)ccc(NC(=O)C4CC4)c3C2=O)ccc1OC(F)F` (centres unmarked) [Example 37, Cyclopropanecarboxylic acid {2-[2-carbamoyl-1-(4-difluoromethoxy-3-ethoxy-phenyl)-ethyl]-7-chloro-3-oxo-2,3-dihydro-1H-isoindol-4-yl}-amide], the melting point was in the range of 198 to 200 °C.

As for `CCOc1cc(C(CC(=O)N2CCOCC2)N2C(=O)c3cccc(NC(C)=O)c3C2=O)ccc1OC(F)F` (centres unmarked) [Example 38, N-{2-[1-(4-Difluoromethoxy-3-ethoxy-phenyl)-3-morpholin-4-yl-3-oxo-propyl]-1,3-dioxo-2,3-dihydro-1H-isoindol-4-yl}-acetamide], the melting point was in the range of 109 to 111 °C.

`CCOc1cc(C(CC(=O)N2CCOCC2)N2Cc3cccc(NC(C)=O)c3C2=O)ccc1OC(F)F` (centres unmarked) [Example 39, N-{2-[1-(4-Difluoromethoxy-3-ethoxy-phenyl)-3-morpholin-4-yl-3-oxo-propyl]-3-oxo-2,3-dihydro-1H-isoindol-4-yl}-acetamide] had a melting point of 164 to 166 °C.

Compound `CC(=O)Nc1cccc2c1C(=O)N(C(CC(=O)N(C)C)c1ccc(OC(F)F)c(OC(F)F)c1)C2=O` (centres unmarked) [Example 40, 3-(4-Acetylamino-1,3-dioxo-1,3-dihydro-isoindol-2-yl)-3-(3,4-bis-difluoromethoxy-phenyl)-N,N-dimethyl-propionamide] displayed a melting point of 83 to 85 °C.

Compound `COC(=O)CC(c1ccc(OC(F)F)c(OC(F)F)c1)N1Cc2c(Cl)ccc(NC(=O)C3CC3)c2C1=O` (centres unmarked) [Example 41, 3-(3,4-Bis-difluoromethoxy-phenyl)-3-[4-chloro-7-(cyclopropanecarbonyl-amino)-1-oxo-1,3-dihydro-isoindol-2-yl]-propionic acid methyl ester] came in with a melting point of 175 to 177 °C.

In turn, `CN(C)C(=O)CC(c1ccc(OC(F)F)c(OC(F)F)c1)N1Cc2cccc(NC(=O)C3CC3)c2C1=O` (centres unmarked) [Example 42, Cyclopropanecarboxylic acid {2-[1-(3,4-bis-difluoromethoxy-phenyl)-2-dimethylcarbamoyl-ethyl]-3-oxo-2,3-dihydro-1H-isoindol-4-yl}-amide] returned a melting point of 158 to 160 °C.

`NC(=O)CC(c1ccc(OC(F)F)c(OC(F)F)c1)N1Cc2cccc(NC(=O)C3CC3)c2C1=O` (centres unmarked) [Example 43, Cyclopropanecarboxylic acid {2-[1-(3,4-bis-difluoromethoxy-phenyl)-2-carbamoyl-ethyl]-3-oxo-2,3-dihydro-1H-isoindol-4-yl}-amide] yielded a melting point of 198 to 200 °C.

`O=C(CC(c1ccc(OC(F)F)c(OC(F)F)c1)N1Cc2cccc(NC(=O)C3CC3)c2C1=O)NO` (centres unmarked) [Example 44, Cyclopropanecarboxylic acid {2-[1-(3,4-bis-difluoromethoxy-phenyl)-2-hydroxycarbamoyl-ethyl]-3-oxo-2,3-dihydro-1H-isoindol-4-yl}-amide] gave a melting point of 191 to 193 °C.

`O=C(O)CC(c1ccc(OC(F)F)c(OC(F)F)c1)N1Cc2cccc(NC(=O)C3CC3)c2C1=O` (centres unmarked) [Example 45, 3-(3,4-Bis-difluoromethoxy-phenyl)-3-[7-(cyclopropanecarbonyl-amino)-1-oxo-1,3-dihydro-isoindol-2-yl]-propionic acid]: the melting point is 94 to 96 °C.
